Experimental data as given in US20150368261A1, “CONJUGATES AND SMALL MOLECULES WHICH INTERACT WITH THE CD16A RECEPTOR” (BIOINTEGRATOR LIMITED LIABILITY COMPANY, priority 2013, published 2015).

Molecular target: CD16a receptor (Homo sapiens, UniProt P08637)
Test: Enzyme immunoassay (ELISA) for binding of proteins and conjugates with CD16a receptor
Settings: Table 2, interferon alfa and its conjugate (FIG. 17); read-out: Activity (Kd) towards CD16a receptor
Experimental: Determination of conjugate activity towards CD16a receptor. The experiment uses standard materials and equipment for enzyme immunoassay. Into wells of a 96-well plate CD16a was sorbed from a solution of 3.3 μg/ml in PBS in a volume of 75 μl/well. Sorption was carried out at 4° C. during 16 h. CD16a Solution was removed from the plate, wells were filled in with 2% solution of bovine serum albumin (BSA) in PBS-p (150 μl/well). Plates were incubated at 37° C. for 2 h and three times washed with PBS-p (each time by 300 μl/well). Then the wells were filled with solutions of the conjugates in PBSP, 50 μl/well in dilutions from 0.25 to 256 μg/ml. To each dilution of the conjugate three wells corresponded in the plate. In order to control non-specific sorption of samples some wells were filled with […] BSA solution. The plate was incubated 1 h at 37° C. in a shaker for ELISA (rotation speed was 180 rpm). The plate was washed five times with 300 μl/well of PBS-p and filled with a solution of a protein modified with horseradish peroxidase (by 75 μl/well in the working dilution, which is given in the description of immunoconjugate). The plate was incubated for 30 minutes, washed five times with 300 μl/well of PBS-p and filled with a solution of TMB (100 μl/well). […] The optical density in the plate wells was measured at 450 nm at room temperature. […]

Sequence of CD16a receptor (P08637 17-254): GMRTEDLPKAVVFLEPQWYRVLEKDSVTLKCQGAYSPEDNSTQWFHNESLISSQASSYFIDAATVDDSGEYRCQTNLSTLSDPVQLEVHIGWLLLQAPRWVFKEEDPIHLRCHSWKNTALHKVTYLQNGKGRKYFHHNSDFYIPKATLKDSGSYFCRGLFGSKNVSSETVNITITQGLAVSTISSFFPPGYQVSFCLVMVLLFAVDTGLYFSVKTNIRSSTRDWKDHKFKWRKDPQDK

Kd: 0.23 µM
Substance: interferon alfa
